Values of other authors, collected in patent US20190105332A1, “METHODS OF TREATING PROSTATE CANCER” (Janssen Oncology, Inc., priority 2017, published 2019).
Like-named read-outs stand apart in the source and are kept apart here.

Key:
[1] = target: T1, CYP3A4 (Homo sapiens, UniProt P08684); details: in vitro
[2] = target: T1, CYP3A4; parameters: from tissue; host or cells: in vivo, healthy human subjects (endogenous enzyme); details: healthy subjects
[3] = target: T2, CYP2C9 (Homo sapiens, UniProt P11712); details: human hepatic microsomes
T2 construct: In vitro studies with human hepatic microsomes; from tissue; host or cells: human hepatic microsomes

[4] = rat micronucleus assay
[5] = system: human plasma proteins, albumin and alpha-1 acid glycoprotein
[6] = oral 14C-abiraterone acetate
[7] = not given; remark: listed apart in the source
[8] = end-stage renal disease on dialysis; single oral 1,000 mg dose
[9] = system: primary human lymphocytes
[10] = not given; remark: listed apart in the source
[11] = target: P-glycoprotein (P-gp) (Homo sapiens, UniProt P08183); details: in vitro, clinically relevant concentrations
[12] = target: T3, OATP1B1 (Homo sapiens, UniProt Q9Y6L6); details: in vitro
T3 sequence (Q9Y6L6 1-691): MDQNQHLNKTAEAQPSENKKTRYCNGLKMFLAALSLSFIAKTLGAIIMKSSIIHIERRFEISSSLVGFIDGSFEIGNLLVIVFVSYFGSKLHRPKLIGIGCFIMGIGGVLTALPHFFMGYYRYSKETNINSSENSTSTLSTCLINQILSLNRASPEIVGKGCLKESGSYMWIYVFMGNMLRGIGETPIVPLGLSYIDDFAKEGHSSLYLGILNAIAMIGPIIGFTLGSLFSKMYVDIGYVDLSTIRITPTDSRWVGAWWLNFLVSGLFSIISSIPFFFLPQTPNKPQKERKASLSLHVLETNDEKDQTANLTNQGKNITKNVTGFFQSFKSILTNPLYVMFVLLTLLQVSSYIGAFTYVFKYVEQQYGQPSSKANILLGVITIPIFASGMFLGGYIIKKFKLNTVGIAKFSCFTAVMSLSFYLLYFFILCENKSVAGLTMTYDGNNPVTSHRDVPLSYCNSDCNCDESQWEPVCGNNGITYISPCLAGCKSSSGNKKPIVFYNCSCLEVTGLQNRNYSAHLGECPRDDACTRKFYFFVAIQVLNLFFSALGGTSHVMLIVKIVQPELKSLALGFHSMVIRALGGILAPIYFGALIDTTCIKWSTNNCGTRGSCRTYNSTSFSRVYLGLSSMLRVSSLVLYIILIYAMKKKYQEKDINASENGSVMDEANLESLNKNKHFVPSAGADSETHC

[13] = target: T4, CYP1A2 (Homo sapiens, UniProt P05177); parameters: In vitro studies with human hepatic microsomes; from tissue; host or cells: human hepatic microsomes; details: human hepatic microsomes
T4 sequence (P05177 1-516): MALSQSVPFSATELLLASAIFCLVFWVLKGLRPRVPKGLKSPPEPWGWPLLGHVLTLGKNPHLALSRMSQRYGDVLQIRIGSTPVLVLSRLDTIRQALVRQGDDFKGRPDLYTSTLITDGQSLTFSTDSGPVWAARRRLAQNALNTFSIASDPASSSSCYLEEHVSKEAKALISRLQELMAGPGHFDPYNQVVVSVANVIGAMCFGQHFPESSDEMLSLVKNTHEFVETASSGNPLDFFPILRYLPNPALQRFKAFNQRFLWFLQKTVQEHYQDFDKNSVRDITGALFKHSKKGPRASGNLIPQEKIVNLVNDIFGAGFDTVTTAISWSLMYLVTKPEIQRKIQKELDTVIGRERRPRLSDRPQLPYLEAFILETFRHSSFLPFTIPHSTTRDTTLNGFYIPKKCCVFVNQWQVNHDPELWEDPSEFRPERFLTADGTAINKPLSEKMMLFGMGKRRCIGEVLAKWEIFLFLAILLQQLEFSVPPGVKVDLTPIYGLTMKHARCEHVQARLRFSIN

[14] = target: T5, CYP2D6 (Homo sapiens, UniProt P10635); details: human hepatic microsomes
T5 construct: from tissue; host or cells: in vivo, trial participants (endogenous hepatic enzyme)

[15] = healthy subjects, single dose with high-fat (57% fat, 825 calories) meal
[16] = healthy subjects, single dose with low-fat meal (7% fat, 300 calories)

T1 sequence (P08684 whole entry): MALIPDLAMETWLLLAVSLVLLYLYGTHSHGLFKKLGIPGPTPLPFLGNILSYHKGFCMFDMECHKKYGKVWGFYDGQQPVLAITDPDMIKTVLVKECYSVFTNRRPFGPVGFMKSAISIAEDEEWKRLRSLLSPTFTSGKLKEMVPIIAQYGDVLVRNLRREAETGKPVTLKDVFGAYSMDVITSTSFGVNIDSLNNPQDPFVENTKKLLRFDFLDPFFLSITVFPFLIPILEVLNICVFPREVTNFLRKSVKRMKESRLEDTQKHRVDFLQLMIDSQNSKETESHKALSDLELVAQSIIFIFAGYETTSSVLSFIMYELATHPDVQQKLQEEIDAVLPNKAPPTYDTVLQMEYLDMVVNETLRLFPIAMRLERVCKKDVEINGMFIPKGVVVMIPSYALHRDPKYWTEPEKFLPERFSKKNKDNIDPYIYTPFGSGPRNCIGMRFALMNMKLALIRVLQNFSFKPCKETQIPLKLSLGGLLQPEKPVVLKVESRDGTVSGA
T2 sequence (P11712 whole entry): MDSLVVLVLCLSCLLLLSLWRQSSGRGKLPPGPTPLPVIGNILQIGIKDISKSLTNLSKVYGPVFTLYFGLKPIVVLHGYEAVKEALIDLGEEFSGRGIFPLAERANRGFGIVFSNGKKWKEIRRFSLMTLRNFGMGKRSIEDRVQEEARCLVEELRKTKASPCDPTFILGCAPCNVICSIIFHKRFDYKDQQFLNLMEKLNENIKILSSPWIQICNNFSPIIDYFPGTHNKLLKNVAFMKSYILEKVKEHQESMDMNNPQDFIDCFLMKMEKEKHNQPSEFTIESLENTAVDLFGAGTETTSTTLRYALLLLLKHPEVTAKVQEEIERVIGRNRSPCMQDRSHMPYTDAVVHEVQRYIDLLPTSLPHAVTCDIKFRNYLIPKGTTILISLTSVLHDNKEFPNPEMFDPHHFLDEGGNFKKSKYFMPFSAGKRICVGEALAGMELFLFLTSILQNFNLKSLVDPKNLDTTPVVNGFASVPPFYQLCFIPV
T5 sequence (P10635 whole entry): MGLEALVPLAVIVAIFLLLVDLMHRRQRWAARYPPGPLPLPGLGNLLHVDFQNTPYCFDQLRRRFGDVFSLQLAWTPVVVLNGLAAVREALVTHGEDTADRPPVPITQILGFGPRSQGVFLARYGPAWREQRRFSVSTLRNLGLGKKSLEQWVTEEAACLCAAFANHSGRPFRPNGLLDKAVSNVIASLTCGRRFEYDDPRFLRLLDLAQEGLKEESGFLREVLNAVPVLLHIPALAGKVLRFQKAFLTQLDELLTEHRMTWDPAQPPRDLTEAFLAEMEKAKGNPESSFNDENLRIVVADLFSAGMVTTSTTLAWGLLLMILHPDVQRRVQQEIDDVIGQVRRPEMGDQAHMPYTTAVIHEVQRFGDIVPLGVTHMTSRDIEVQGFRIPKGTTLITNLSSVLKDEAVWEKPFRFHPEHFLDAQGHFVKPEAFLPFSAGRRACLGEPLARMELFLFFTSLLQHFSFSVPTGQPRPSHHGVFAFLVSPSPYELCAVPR
P-glycoprotein (P-gp), sequence (P08183 whole entry): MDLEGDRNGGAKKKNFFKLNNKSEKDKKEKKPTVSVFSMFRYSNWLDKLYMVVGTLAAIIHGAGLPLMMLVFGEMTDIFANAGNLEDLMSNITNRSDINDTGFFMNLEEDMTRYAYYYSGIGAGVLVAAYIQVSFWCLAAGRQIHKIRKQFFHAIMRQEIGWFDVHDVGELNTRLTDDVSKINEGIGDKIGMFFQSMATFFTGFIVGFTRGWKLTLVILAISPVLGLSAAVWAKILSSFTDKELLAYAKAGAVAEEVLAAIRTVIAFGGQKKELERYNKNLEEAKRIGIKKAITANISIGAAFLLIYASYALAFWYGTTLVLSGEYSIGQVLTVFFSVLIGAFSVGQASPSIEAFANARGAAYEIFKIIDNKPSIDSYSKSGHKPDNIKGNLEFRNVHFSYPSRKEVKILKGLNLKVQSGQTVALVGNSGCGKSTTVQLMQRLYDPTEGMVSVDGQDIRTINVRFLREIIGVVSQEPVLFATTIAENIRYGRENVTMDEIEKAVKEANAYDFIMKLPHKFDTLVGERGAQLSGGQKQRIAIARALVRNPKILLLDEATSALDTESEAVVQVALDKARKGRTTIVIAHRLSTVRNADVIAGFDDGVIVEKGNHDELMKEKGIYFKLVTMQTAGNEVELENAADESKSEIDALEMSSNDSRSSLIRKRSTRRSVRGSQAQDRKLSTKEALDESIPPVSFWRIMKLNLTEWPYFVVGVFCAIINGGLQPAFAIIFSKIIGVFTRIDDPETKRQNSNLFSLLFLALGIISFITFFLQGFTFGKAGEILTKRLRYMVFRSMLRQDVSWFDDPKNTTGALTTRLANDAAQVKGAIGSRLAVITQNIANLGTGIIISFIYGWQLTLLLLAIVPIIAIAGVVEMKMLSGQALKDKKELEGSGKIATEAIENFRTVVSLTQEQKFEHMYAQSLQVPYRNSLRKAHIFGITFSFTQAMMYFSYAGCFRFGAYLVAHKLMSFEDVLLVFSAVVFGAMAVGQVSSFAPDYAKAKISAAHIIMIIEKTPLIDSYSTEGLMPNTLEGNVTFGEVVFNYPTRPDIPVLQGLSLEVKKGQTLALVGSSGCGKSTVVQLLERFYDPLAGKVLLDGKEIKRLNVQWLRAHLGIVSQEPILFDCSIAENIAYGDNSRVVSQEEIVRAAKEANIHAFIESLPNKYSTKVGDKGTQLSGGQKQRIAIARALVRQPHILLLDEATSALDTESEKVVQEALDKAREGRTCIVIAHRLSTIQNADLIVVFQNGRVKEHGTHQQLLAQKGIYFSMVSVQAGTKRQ

In the case of `C[C@]12CC[C@H](O)CC1=CC[C@@H]1[C@@H]2CC[C@]2(C)C(c3cccnc3)=CC[C@@H]12` [abiraterone], the “substrate of CYP3A4” value [1] is given as “substrate”, the “effect of ketoconazole co-administration on pharmacokinetics” value [2] is given as “no clinically meaningful effect” and the “decrease of exposure (mean plasma AUC∞) with rifampin” value ([2]; rifampin 600 mg daily for 6 days, then single 1,000 mg abiraterone acetate) is given as 55%. The mean half-life (mild hepatic impairment) was “approximately 18 hours”, the mean half-life (moderate hepatic impairment) was “approximately 19 hours” and the “systemic exposure (AUC) increase vs normal hepatic function” value (moderate hepatic impairment (Child-Pugh Class B), single oral 1,000 mg dose) was ~3.6 fold. For the same compound, the “systemic exposure (AUC) increase vs normal hepatic function” value (severe hepatic impairment (Child-Pugh Class C)) was “approximately 7 fold”, the “inhibition of CYP2C9” value [3] was “to a lesser extent” and the clastogenicity in vivo [4] was “not mutagenic in an in vitro microbial mutagenesis (Ames) assay or clastogenic”. The “bound to human plasma proteins” value [5] was > 99%, the “compound present in feces, share of the administered dose” value [6] was ~22% and the “steady-state Cmax (mean±SD)” value ([7]; 1,000 mg daily, patients with metastatic CRPC) was 226 ± 178 ng/mL. For the same compound, the dose proportionality ([7]; dose range of 250 mg to 1,000 mg) was “No major deviation from dose proportionality”, the “increase in the mean AUC when dose doubled” value ([7]; from 1,000 to 2,000 mg) was 8% and the “accumulation: steady-state AUC compared to a single 1,000 mg dose” value ([7]; human, in vivo) was 2 fold. For the same compound, the “median time to reach maximum plasma abiraterone concentrations” value ([7]; oral abiraterone acetate, patients with metastatic CRPC) was 2 h, the “systemic exposure vs normal renal function” value [8] was “did not increase” and the clastogenicity in vitro [9] was “not mutagenic in an in vitro microbial mutagenesis (Ames) assay or clastogenic”. The “AUC0-∞, fold higher vs overnight fasting” value [10, 15] was ~10 fold, the “Cmax, fold higher vs overnight fasting” value [10, 15] was “approximately 17 fold” and the “AUC0-∞, fold higher vs overnight fasting” value [10, 16] was ~5 fold. For the same compound, the “Cmax, fold higher vs overnight fasting” value [10, 16] was “approximately 7 fold”, the “systemic exposure increase vs dosing away from meals” value ([10]; patients with metastatic CRPC, repeated dosing with high-fat meals for 7 days) was “approximately 2 fold” and the “systemic exposure vs dosing away from meals” value ([10]; patients with metastatic CRPC, repeated dosing with low-fat meals for 7 days) was “similar”. For the same compound, the “AUC0-∞, fold higher vs overnight fasting” value ([10]; single dose 1 hour before a medium fat meal (25% fat, 491 calories)) was ~1.6 fold, the “AUC0-∞, fold higher vs overnight fasting” value ([10]; single dose 2 hours after a medium fat meal (25% fat, 491 calories)) was “approximately 7 fold” and the “substrate of P-glycoprotein (P-gp)” value [11] was “not substrates”. For the same compound, the “inhibition of hepatic uptake transporter OATP1B1” value [12] was “inhibit”, the “inhibition of CYP1A2” value [13] was “potential to inhibit” and the “inhibition of CYP2D6” value [14] was “potential to inhibit”.
